# In patent US6596764B1, “Method of preparing diacetyl rhein” (Laboratoire Medidom S.A., priority 1991, dated 2003):
# What was measured:
# cotton pellet granuloma = assay: Cotton pellet granuloma in rats (chronic inflammation model, oral administration); assay type: in vivo, rat
# Description: The effectiveness of diacetylrhein was determined in chronic inflammation models after oral administration. The following experimental models were used: cotton pellet granuloma in rats and arthrosis in rabbits induced by the intraarticular administration of vitamin A. a) Cotton pellet granuloma in rats. Young sexually mature rats (n=10) were given 25, 50 or 100 mg diacetylrhein/kg or 5 mg indomethacin/kg or 100 mg acetylsalicylic acid/kg daily for 5 days. A control group only treated with water was also used. Implantation of the pellets took place on the first day of treatment.
# [1] = system: arthrosis in rabbits induced by the intraarticular administration of vitamin A; assay: Vitamin A arthrosis in rabbits (chronic inflammation model, oral administration); assay type: in vivo, rabbit (white New Zealanders); conditions: for clinical signs of arthrosis (disturbances of movement, dragging of the rear legs): 7 rabbits
# Description: The effectiveness of diacetylrhein was determined in chronic inflammation models after oral administration.
# The following experimental models were used: cotton pellet granuloma in rats and arthrosis in rabbits induced by the intraarticular administration of vitamin A.
# An arthrosis-like joint change was initiated in two groups each of 10 rabbits (white New Zealanders) by means of three intraarticular injections of 30,000 IU of vitamin A over the course of 9 days. 56 days later, 10 animals were treated with 3 mg of diacetylrhein/kg/day for 8 weeks.
# Furthermore, the curative action of diacetylrhein was compared with that of acetylsalicylic acid on each of 7 rabbits which, after 6 days pre-treatment with three times 10,000 IU vitamin A and a 26 day treatment-free interval for 8 weeks, received either 5 mg of diacetylrhein/kg/day (experimental group), 15 mg of acetylsalicylic acid/kg/day (positive control group) or remained untreated (negative control group). […] In the negative control group, during the following 8 weeks, the clinical signs of a manifest arthrosis increased.
# gastric mucosa = assay: Gastric mucosa changes in the rat; assay type: in vivo
# in vivo = conditions: rat, mouse, cat
# [2] = system: coxarthrosis and gonarthrosis; assay: Clinical double-blind study against naproxen with subsequent placebo after-treatment; assay type: in vivo, human; conditions: for improvement of all test parameters (pain and movement symptoms score, function limitation, compatibility) vs initial values: patients, 60 days
# Description: 1. The action of diacetylrhein was investigated in coxarthrosis and gonarthrosis in 95 (49/46) patients in a double-blind study against naproxen and subsequent placebo after-treatment. The dosage administered was 50 mg of diacetylrhein twice daily or 750 mg of naproxen daily. The period of treatment was 60 days after a 7 day wash-out phase. The subsequent placebo treatment extended over 60 days. Test parameters were the pain and movement symptoms according to a score scale, function limitation and compatibility.
# [3] = system: osteoarthrosis of the spine and of the knee; assay: Clinical open running study with control (physiotherapy); assay type: in vivo, human
# Description: 2. In an open running study with control, there was investigated the action of diacetylrhein against osteoarthrosis of the spine and of the knee in 70 patients (35/35). The dosage administered was 100 mg of diacetylrhein per day. The period of treatment was 60 days and the period of observation was 75 days. The test parameters were pain and movement limitation. The parameters were evaluated according to a score system. The control group comprised 35 patients in the case of which exclusively physiotherapeutic measures were carried out. Physiotherapy was also carried out in the diacetylrhein treatment group.
# localised arthrosis = assay: Clinical single blind crossover study against naproxen; assay type: in vivo, human; conditions: 20 patients
# Description: 3. The action of diacetylrhein in the case of localised arthrosis in 20 patients was investigated in a single blind crossover study against naproxen. The patients were divided up into two groups: in the first group, initially 50 mg of diacetylrhein was administered twice daily for 20 days. Subsequently, there followed a three day wash-out phase and a further treatment with 250 mg of naproxen twice daily for a further 20 days. In the second group, the reverse sequence was used. The period of treatment was, in all, 43 days. The test parameters of pain, compression pain, passive movement pain, function limitation and swelling were determined according to a score system.
# [4] = system: mucosal lesions in patients with osteoarthrosis; assay: Clinical randomised double blind double dummy compatibility study (oesophagogastroduodenoscopic findings); assay type: in vivo, human; conditions: after 4 weeks
# Description: 4. The action of diacetylrhein was investigated in 23 patients (12/11) with osteoarthrosis in a randomised double blind study using the “double dummy technique” (compatibility study). The dosage administered was 50 mg of diacetylrhein twice daily and 250 mg of naproxen three times daily. The period of treatment was 4 weeks. The test parameters were then oesophagogastroduodenoscopic findings before and after the therapy. Only patients with normal mucosal findings or with slight mucosal lesions (grade 1) were used in the study.
# [5] = crossover study, 43 days in all
# [6] = 50 mg of diacetylrhein twice daily
# [7] = 250 mg of naproxen three times daily
smiles,measurement,setting,value
CC(=O)Oc1cccc2c1C(=O)c1c(OC(C)=O)cc(C(=O)O)cc1C2=O [diacetylrhein],Fresh and dry weights of the granuloma,"cotton pellet granuloma; rats (n=10), oral, 25, 50 or 100 mg diacetylrhein/kg daily for 5 days, in comparison with water-treated control group",significant and clearly dosage-dependent reduction
same,action on granuloma weights compared with reference drugs,"cotton pellet granuloma; rats, oral, 100 mg diacetylrhein/kg daily for 5 days vs 5 mg indomethacin/kg or 100 mg acetylsalicylic acid/kg",corresponded to about the action of 5 mg indomethacin or of 100 mg acetylsalicylic acid
same,weights of the thymus and adrenals,"cotton pellet granuloma; rats, oral, daily treatment for 5 days",did not change
same,"clinical signs of arthrosis (disturbances of movement, dragging of the rear legs)","[1]; 5 mg of diacetylrhein/kg/day for 8 weeks after 3 x 10,000 IU vitamin A and 26 day treatment-free interval",improved significantly
same,macroscopically and microscopically recognisable joint changes,"[1]; rabbits, 3 mg/kg/day for 8 weeks starting 56 days after 3 x 30,000 IU vitamin A, in comparison with control group",significantly reduced
same,erosions of the gastric mucosa,gastric mucosa; single administration of 400 mg/kg,did not give rise to any erosions
same,gastric mucosal damage,gastric mucosa; twice daily 100 mg/kg over the course of 3 days,did not initiate any mucosal damage
same,LD50,in vivo,119 to 339 mg/kg
same,LD50,in vivo; po,1900 to 7900 mg/kg
same,"night pain and pressure pain after discontinuation, vs naproxen/placebo collective","[2]; 30 days after discontinuation of diacetylrhein, 5% level",difference was also verified
same,"spontaneous pain and active and passive movement pain after discontinuation, vs naproxen/placebo collective","[2]; days 90 and 120, under subsequent placebo, P<0.01",statistically significant superiority
same,"improvement of all test parameters (pain and movement symptoms score, function limitation, compatibility) vs initial values","[2]; 50 mg of diacetylrhein twice daily, P<0.01",statistically significant rate of improvement
same,"pain and movement limitation (score system), treatment group vs control group","[3]; 35/35 patients, 100 mg per day plus physiotherapy for 60 days vs physiotherapy only",statistically significant superiority
same,effect after discontinuation of the treatment,"[3]; period of observation 75 days, treatment 60 days, 100 mg per day",continuing therapeutic effect (hang-over effect)
same,clinical laboratory parameters,localised arthrosis; [5],no changes
same,side effects,localised arthrosis; [5],No noteworthy side effects
same,"pain, compression pain, passive movement pain, function limitation and swelling (score system), vs naproxen","localised arthrosis; crossover, 50 mg diacetylrhein twice daily 20 days vs 250 mg naproxen twice daily 20 days",superiority
same,number of cases with mucosal lesions of grade 2 (endoscopic findings),[4]; [6],one
same,share of patients with mucosal lesions of grade 2 (endoscopic findings),[4]; [6],10%
"COc1ccc2cc([C@H](C)C(=O)O)ccc2c1 [naproxen, reference compound]","improvement of all test parameters (pain and movement symptoms score, function limitation, compatibility) vs initial values","[2]; 750 mg of naproxen daily, P<0.05",statistically significant rate of improvement
same,"number of patients with mucosal lesions of grade 2, 3 and 4 (endoscopic findings)",[4]; [7],5 patients
same,"share of patients with mucosal lesions of grade 2, 3 and 4 (endoscopic findings)",[4]; [7],50%
"CC(=O)Oc1ccccc1C(=O)O [acetylsalicylic acid, reference compound]","clinical signs of arthrosis (disturbances of movement, dragging of the rear legs)",[1]; 15 mg of acetylsalicylic acid/kg/day for 8 weeks (positive control group),improved significantly
